# Source: ChEMBL document CHEMBL1201862, “PubChem BioAssay data set” (2004)
# Calls of active or inactive are those of the source.
# Experiments:
# [1] = target: Troponin, cardiac muscle (Homo sapiens, UniProt P19429+P45379+P63316); assay: Fluorescence-based biochemical high throughput dose response assay for activators of the calcium sensitivity of cardiac Regulated Thin Filaments (RTF). [Related pubchem assays (depositor defined):AID493008, AID493018, AID504382, AID504383]; format: protein-complex assay
# [2] = target: ORF 73 (Human herpesvirus 8, UniProt O40947); assay: KSHV LANA DNA-binding disruption – biochemical, fluorescence polarization, cherry-picked samples, dose response (AID 504725); set-up: species or system Human gammaherpesvirus 8;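 note: fluorescence polarization of a labeled DNA duplex reporting LANA DNA binding; potency is for inhibitors that block LANA binding to the DNA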
# [3] = luciferase reporter signal suppression in cells – H4 neuroglioma cells, luminescence, dose response (AID 1990); format: functional, cell-based
# [4] = alpha-synuclein stem-loop luciferase translation blockers – H4 neuroglioma cells, luminescence, confirmation (AID 1988); format: functional, cell-based
# [5] = target: Protein S100-A4 (Homo sapiens, UniProt P26447); assay: human S100A4 peptide interaction inhibition curves – biochemical, fluorescence polarization, cherry-picked hits, dose response (AID 687001); format: functional
# Sequence of Protein S100-A4 (P26447 whole entry): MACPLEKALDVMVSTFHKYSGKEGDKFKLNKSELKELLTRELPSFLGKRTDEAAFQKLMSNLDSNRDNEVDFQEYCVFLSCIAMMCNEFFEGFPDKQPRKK
# [6] = Luminescence Cell-Based Dose Response HTS to Identify Inhibitors of 5'UTR Stem-Loop Driven Prion Protein mRNA Translation in H4 Neuroglioblastoma Cells. [Related pubchem assays: 1827 (Project Summary), 1813 (Primary HTS)]; format: functional
# [7] = system: HeLa; assay: viability loss in HeLa cells – cell-based, 24 h, cherry-picked samples, cytotoxicity control, dose response (AID 504726); format: functional; conditions: Homo sapiens;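 note: potency for cytotoxicity as loss of luminescence signal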
# [8] = target: Paired box protein Pax-8 (Homo sapiens, UniProt Q06710); assay: PAX8 transcriptional activity inhibition in RMG-I – RMG-I cells, luciferase, cherry-pick, dose response (AID 687027); format: functional, cell-based;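 note: luciferase reporter driven by Pax8 target thyroperoxidase promoter measured by SteadyGlo luminescence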
# Sequence of Paired box protein Pax-8 (Q06710 whole entry): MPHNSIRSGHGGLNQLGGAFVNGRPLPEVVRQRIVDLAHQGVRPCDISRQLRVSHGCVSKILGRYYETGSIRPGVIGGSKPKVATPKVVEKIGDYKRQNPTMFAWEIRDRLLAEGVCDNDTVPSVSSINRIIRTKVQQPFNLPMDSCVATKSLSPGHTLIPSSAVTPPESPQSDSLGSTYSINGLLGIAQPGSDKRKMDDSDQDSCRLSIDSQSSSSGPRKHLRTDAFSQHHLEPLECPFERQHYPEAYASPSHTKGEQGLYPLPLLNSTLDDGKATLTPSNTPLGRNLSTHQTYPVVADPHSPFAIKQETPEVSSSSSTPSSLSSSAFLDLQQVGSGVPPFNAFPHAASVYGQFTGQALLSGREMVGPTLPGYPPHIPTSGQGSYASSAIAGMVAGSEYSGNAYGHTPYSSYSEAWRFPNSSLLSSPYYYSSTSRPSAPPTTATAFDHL
# [9] = target: Eukaryotic translation initiation factor 4H (Homo sapiens, UniProt Q15056); assay: inhibitors of translation initiation factor eIF4H – SAR follow-up (AID 435011); format: functional
# [10] = target: T1, Polyadenylate-binding protein 1 (Homo sapiens, UniProt P11940); assay: PABP inhibition in translation initiation, SAR follow-up (AID 435018); format: functional
# T1 sequence (P11940 whole entry, the tested form may be a part): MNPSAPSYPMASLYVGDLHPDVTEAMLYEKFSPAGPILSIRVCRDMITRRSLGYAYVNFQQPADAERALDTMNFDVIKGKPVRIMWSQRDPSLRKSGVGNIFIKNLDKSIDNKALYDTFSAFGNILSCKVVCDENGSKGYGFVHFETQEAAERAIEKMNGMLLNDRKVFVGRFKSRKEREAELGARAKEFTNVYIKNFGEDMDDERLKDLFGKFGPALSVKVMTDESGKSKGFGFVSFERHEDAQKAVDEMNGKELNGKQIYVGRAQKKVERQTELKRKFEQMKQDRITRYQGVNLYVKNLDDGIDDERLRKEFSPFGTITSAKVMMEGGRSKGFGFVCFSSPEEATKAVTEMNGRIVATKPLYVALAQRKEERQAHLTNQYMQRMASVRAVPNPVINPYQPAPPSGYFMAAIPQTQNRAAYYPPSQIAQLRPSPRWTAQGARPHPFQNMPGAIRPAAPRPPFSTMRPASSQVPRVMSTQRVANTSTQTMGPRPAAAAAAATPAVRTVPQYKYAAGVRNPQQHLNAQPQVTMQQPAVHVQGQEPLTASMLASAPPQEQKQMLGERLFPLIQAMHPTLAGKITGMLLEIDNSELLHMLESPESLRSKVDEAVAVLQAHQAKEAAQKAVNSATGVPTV
# [11] = target: NACHT, LRR and PYD domains-containing protein 1 (Homo sapiens, UniProt Q9C000); assay: NALP1 inhibitors in yeast, dose response, luminescent (AID 488860); format: functional
# Sequence of NACHT, LRR and PYD domains-containing protein 1 (Q9C000 1-1212 limits assumed): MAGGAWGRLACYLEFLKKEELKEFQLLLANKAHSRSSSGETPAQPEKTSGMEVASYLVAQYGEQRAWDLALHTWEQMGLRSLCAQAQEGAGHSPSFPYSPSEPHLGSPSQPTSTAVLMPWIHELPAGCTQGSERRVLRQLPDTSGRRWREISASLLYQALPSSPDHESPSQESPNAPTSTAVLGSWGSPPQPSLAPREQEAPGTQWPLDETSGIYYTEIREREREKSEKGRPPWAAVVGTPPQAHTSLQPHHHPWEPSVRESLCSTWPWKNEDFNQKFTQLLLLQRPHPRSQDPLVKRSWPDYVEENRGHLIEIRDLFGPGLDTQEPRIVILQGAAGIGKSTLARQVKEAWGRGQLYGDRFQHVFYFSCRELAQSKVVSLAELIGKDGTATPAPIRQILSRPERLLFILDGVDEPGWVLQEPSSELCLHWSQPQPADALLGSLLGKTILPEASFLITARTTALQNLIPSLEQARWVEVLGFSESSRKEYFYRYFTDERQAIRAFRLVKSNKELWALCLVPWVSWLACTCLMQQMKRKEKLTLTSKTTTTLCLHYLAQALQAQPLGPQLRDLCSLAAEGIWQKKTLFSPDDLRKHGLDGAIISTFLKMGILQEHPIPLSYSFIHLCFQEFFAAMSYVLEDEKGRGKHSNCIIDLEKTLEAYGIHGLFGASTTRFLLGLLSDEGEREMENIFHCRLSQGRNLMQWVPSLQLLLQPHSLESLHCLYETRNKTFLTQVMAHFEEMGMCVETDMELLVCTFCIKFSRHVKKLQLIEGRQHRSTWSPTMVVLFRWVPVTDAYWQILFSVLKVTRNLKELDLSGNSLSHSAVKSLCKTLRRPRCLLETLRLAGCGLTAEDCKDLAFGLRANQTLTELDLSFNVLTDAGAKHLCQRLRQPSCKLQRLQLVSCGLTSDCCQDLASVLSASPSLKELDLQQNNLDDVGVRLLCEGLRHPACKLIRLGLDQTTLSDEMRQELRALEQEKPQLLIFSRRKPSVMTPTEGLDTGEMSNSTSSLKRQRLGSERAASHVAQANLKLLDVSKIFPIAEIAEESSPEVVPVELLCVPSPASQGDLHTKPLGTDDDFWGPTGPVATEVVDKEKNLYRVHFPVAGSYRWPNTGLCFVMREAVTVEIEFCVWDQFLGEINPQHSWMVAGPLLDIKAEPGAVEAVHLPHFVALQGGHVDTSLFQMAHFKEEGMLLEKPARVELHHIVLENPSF
# Sequence of NACHT, LRR and PYD domains-containing protein 1 (Q9C000 1213-1473 limits assumed): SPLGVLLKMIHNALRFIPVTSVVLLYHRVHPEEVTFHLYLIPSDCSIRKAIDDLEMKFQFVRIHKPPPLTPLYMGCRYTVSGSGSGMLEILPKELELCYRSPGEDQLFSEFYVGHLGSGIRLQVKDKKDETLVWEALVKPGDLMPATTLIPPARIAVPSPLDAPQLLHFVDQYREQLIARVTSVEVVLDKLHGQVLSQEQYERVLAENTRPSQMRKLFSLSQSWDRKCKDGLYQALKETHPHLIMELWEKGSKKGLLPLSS
# [12] = system: Saccharomyces cerevisiae; assay: S. cerevisiae Caspase-1/ASC signal blockers IC50, NALP1 inhibitor project selectivity test (AID 488863); format: functional, organism-based
# [13] = target: T2, E3 ubiquitin-protein ligase XIAP (Homo sapiens, UniProt P98170); assay: small molecules displacing peptide from XIAP – biochemical, IAP family, fluorescence polarization (AID 1018); format: functional
# T2 sequence (P98170 whole entry): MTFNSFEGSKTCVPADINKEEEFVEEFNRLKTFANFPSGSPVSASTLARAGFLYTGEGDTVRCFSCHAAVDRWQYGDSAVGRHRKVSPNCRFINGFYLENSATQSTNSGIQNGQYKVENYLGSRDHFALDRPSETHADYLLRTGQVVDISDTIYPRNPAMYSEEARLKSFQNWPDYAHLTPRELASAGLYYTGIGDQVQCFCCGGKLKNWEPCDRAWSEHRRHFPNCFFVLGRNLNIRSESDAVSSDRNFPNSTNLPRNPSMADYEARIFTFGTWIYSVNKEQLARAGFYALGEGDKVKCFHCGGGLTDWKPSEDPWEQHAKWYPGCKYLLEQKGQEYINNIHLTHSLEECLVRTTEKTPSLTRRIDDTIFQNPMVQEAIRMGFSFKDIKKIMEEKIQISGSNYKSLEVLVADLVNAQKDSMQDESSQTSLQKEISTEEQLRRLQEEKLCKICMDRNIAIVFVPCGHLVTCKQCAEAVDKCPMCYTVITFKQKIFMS
# [14] = target: T2, E3 ubiquitin-protein ligase XIAP; assay: Counter Screen using XIAP-Bir3 for Chemical Antagonists of Bir1/2 domains of IAP-family anti-apoptotic proteins. [Related pubchem assays (depositor defined):AID1018, AID1449, AID1514, AID1638, AID1749, AID1750, AID488957, AID488963]
# [15] = target: T3, Sentrin-specific protease 1 (Homo sapiens, UniProt Q9P0U3); assay: SENP1 catalytic domain blockers, concentration series – biochemical, kinetic FRET, dose response (AID 651697); format: functional; conditions: read-out: IC50_Mean
# T3 sequence (Q9P0U3 whole entry): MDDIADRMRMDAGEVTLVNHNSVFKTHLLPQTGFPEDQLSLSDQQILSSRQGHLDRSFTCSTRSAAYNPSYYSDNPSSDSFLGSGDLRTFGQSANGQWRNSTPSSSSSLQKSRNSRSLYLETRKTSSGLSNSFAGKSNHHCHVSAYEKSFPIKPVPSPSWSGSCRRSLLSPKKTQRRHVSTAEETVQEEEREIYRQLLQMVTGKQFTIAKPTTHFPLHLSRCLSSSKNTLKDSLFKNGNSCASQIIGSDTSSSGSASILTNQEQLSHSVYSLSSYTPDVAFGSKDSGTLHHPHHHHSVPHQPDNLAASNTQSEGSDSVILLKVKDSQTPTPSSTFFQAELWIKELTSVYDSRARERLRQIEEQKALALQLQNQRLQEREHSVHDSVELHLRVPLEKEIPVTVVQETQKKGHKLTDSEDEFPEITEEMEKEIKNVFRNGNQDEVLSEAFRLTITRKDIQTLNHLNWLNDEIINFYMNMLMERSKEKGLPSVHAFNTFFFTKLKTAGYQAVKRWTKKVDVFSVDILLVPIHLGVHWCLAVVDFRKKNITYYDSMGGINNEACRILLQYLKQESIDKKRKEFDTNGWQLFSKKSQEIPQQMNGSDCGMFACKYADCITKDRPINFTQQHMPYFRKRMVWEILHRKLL
# [16] = target: T1, Polyadenylate-binding protein 1; assay: MLLE binding blockers, Cy5 peptide tracer – biochemical, fluorescence polarization, Cy5-PAM2 peptide, secondary, miRNA deadenylation inhibitor project, dose response (AID 602260); format: functional; conditions: read-out: IC50_Mean
# [17] = target: Protein Rev (Human immunodeficiency virus type 1 group M subtype B (isolate HXB2)(HIV-1), UniProt P04618); assay: blockers of HIV Rev/RRE RNA complex – biochemical, fluorescence polarization, HIV-1, dose response (AID 434976); set-up: species or system Human immunodeficiency virus 1
# Sequence of Protein Rev (P04618 whole entry, the tested form may be a part): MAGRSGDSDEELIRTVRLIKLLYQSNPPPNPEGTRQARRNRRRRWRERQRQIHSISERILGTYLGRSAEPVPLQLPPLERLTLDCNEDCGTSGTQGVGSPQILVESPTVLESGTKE
# [18] = target: T3, Sentrin-specific protease 1; assay: Dose response confirmation of small molecule inhibitors of the catalytic domain of the SUMO protease, SENP1 in a FRET assay.; format: functional; conditions: read-out: IC50_Mean
# [19] = target: Female germline-specific tumor suppressor gld-1 (Caenorhabditis elegans, UniProt Q17339); assay: blockers of GLD-1/TGE RNA complex formation – biochemical, fluorescence polarization, C. elegans, dose response (AID 2802);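 note: fluorescence polarization of labeled TGE RNA bound by purified gld-1 protein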
# Sequence of Female germline-specific tumor suppressor gld-1 (Q17339 whole entry, the tested form may be a part): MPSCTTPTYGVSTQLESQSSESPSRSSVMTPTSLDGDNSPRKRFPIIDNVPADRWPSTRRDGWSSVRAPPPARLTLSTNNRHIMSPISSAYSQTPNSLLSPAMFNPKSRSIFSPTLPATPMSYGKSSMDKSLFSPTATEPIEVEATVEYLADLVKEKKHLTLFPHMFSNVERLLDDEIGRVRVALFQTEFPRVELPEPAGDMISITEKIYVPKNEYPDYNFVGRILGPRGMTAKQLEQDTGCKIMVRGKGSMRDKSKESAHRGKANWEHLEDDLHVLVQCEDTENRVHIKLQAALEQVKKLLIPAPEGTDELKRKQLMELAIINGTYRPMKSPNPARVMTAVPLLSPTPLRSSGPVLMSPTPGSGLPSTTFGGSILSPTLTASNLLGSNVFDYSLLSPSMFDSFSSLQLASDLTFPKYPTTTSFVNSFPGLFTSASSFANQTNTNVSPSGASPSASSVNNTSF
# [20] = target: T1, Polyadenylate-binding protein 1; assay: MLLE domain peptide-binding blockers, IC50 – biochemical, fluorescence polarization, FITC-PAM2 peptide, dose response (AID 602259); format: functional; conditions: read-out: IC50_Mean
smiles,measurement,setting,value
O=C(c1ccc(COc2ccccc2Br)o1)N1N=C(C(F)F)CC1(O)C(F)F (stereo not given),EC50,[1],> 71.5 µM (inactive)
COc1cccc2c1C(=O)c1c(O)c3c(c(O)c1C2=O)C[C@](O)(C(C)=O)C[C@H]3O[C@@H]1C[C@@H](N)[C@@H](O)[C@@H](C)O1,AC50,[2],3.01 µM (active)
same,EC50,[3],< 0.1 µM (active)
same,EC50,[4],< 0.1 µM (active)
same,AC50,[5],0.29 µM (active)
same,EC50,[6],0.102 µM (active)
same,AC50,[7],3.2 µM (active)
same,AC50,[8],2.84 µM (active)
CCc1nnc(NC(=O)CSc2ccc(-c3ccco3)nn2)s1,IC50,[9],9.04 µM (active)
same,IC50,[10],64.4 µM (active)
COc1ccccc1N1CCN(CCCCCCOc2ccc(F)cc2)CC1,IC50,[11],9.66 µM (active)
same,IC50,[12],13.2 µM (active)
CCOc1ccc2cc(C(=O)c3ccccc3)c(=O)oc2c1,IC50,[13],> 100 µM (not active)
same,IC50,[14],> 100 µM (inactive)
O=C1C=C(O)c2cccc3cccc1c23,IC50,[15],13.1 µM (active)
same,IC50,[16],33.1 µM (inactive)
same,IC50,[17],13.9 µM (not active)
same,IC50,[18],8.55 µM (active)
same,IC50,[19],6.13 µM (active)
same,IC50,[20],34.5 µM (inactive)
